Source: patent US8916551B2, “Heterocyclic compound and use thereof” (Takeda Pharmaceutical Company Limited, priority 2010, dated 2014)

Target: T1, AMPA receptor (human GluR1 flip/stargazin expressed in CHO-K1 cells) (Homo sapiens, UniProt P42261)
T1 construct: expressed in transfected cells; host or cells: CHO-K1
Experiment: AMPA receptor function enhancing activity using calcium influx as index
Assay type: cell-based
Conditions: test compound 30 μM with 3 mM glutamic acid, change in fluorescence level in 3 min, 100% = 3 mM glutamic acid + 300 μM cyclothiazide, 0% = 3 mM glutamic acid only
Source text: Human GluR1 flip cDNA was amplified by PCR using forward primer […] (SEQ ID NO: 1) and reverse primer […] (SEQ ID NO: 2) artificially synthesized using human brain-derived cDNA (BD Bio science) as a template. The amplified product was digested with restriction enzymes EcoRI, NotI (TAKARA SHUZO CO. LTD.), and incorporated into the same site of pcDNA3.1(+) (Invitrogen) to construct pcDNA3.1(+)/human GluR1 flip gene. Human stargazin cDNA was amplified by PCR using forward primer […] (SEQ ID NO: 3) and reverse primer […] (SEQ ID NO: 4) artificially synthesized using human hippocampus cDNA as a template. The amplified product was digested with restriction enzymes XhoI, BamHI (TAKARA SHUZO CO. LTD.), and incorporated into the same site of pcDNA3.1(−) (Invitrogen) to construct pcDNA3.1 Zeo(−)/human stargazin gene.
CHO-K1 cells passaged in a culture medium (Ham's F12 medium (Invitrogen) added with 10% inactivated fetal bovine serum (Morgate) and penicillin, streptomycin (Invitrogen)) were detached with 0.05% trypsin, 0.53 mM EDTA (Invitrogen) diluted with D-PBS(−). The detached cells were suspended in a culture medium, and recovered by a centrifugation operation at 1,000 rpm. The recovered cells were suspended again in D-PBS(−), and added to a 0.4 cm electroporation cuvette (BioRad). pcDNA3.1(+)/human GluR1 flip gene (5 μg) and pcDNA3.1 Zeo(−)/human stargazin gene (15 μg) were added, and the mixture was introduced into CHO-K1 cells using Gene Pulser II (BioRad) under the conditions of 950 μFd, […]. The introduced cells were cultured overnight in a culture medium and, the next day, plated in a 96 well plate at 250 cells/well using a selection medium (culture medium added with Zeocin (Invitrogen) to 250 μg/mL). Clones showing drug resistance were selected, and GluR1 flip/stargazin expressing clones were selected by an assay method using calcium influx as an index as shown below.
CHO-K1/GluR1 flip/stargazin expressing cells were plated on a 96 well black transparent bottom plate (Costar) at 2×10^4 cells/well, and cultured in a 37° C., CO2 incubator (SANYO Electric Co., Ltd.) for 2 days. The medium in the cell plate was removed, and assay buffer A (D-MEM (Invitrogen), 0.1% BSA (Serogical Protein), 20 mM HEPES (Invitrogen)) was added at 50 μL/well. A calcium indicator (Calcium 4 Assay Kit, Invitrogen) added with 2.5 mM probenecid (Invitrogen) was added at 50 μL/well and the well was left standing in 37° C., CO2 incubator for 1 hr. The cell plate was set in CellLux (PerkinElmer), a mixture (50 μL) of 9 mM glutamic acid diluted with assay buffer B (HBSS (Invitrogen), 0.1% BSA, 20 mM HEPES) (final concentration 3 mM) and a test compound (test compound concentration 30 μM) was added, and the amount of change in fluorescence level in 3 min was measured. In the definition here, the amount of change in fluorescence level of well added with glutamic acid at final concentration 3 mM and 300 μM cyclothiazide (TOCRIS) is 100%, the amount of change in fluorescence level of well added only with glutamic acid at final concentration 3 mM is 0%, and the compound activity was calculated according to the following formula. activity(%)=(X−C)/(T−C)×100 T: amount of change in fluorescence level of well added with glutamic acid at final concentration 3 mM and 300 μM cyclothiazide C: amount of change in fluorescence level of well added only with glutamic acid at final concentration 3 mM X: amount of change in fluorescence level of well added with test compound

T1 sequence (P42261 19-906 isoform P42261-2 limits assumed): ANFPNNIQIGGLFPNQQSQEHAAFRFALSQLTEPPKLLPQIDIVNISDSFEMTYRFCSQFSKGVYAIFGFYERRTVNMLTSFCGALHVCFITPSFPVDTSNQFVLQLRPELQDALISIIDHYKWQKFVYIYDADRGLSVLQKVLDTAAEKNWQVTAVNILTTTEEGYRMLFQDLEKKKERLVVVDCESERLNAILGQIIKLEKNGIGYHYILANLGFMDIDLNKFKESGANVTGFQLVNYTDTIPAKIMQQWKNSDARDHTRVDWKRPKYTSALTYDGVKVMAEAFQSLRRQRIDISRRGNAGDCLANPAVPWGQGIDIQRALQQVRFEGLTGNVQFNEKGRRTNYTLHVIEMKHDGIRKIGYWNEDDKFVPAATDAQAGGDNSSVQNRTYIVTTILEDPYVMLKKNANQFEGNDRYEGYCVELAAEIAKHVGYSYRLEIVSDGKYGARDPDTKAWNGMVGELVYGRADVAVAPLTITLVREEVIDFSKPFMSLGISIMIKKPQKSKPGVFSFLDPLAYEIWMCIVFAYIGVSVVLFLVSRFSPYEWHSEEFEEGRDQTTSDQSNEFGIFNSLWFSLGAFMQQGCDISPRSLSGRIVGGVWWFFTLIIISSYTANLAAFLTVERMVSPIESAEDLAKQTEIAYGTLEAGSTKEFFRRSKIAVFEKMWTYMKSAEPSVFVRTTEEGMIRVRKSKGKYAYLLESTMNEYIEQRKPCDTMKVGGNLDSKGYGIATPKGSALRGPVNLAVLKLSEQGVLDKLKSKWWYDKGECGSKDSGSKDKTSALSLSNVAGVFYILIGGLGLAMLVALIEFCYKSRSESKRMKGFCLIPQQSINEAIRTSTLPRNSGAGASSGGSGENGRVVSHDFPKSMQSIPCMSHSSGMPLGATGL
T1 sequence (Q9Y698 whole entry partner): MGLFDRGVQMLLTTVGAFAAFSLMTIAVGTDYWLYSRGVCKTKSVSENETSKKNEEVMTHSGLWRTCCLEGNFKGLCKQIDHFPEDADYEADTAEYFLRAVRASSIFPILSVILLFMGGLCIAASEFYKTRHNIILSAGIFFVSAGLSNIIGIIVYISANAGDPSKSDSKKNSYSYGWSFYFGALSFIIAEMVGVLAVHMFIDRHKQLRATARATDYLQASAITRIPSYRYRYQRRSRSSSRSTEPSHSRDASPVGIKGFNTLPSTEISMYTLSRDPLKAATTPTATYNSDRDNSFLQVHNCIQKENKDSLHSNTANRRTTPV

| activity (%) | Structure (SMILES) |
| --- | --- |
| 67 | Cc1cc(Cl)ccc1Oc1ccc([C@@H]2CCCN3CCS(=O)(=O)N=C23)cc1 [Example 215, (9S)-9-[4-(4-chloro-2-methylphenoxy)phenyl]-3,4,6,7,8,9-hexahydropyrido[2,1-c][1,2,4]thiadiazine 2,2-dioxide] |
| 80 | O=S1(=O)CCN2C=C(Cl)C=C(c3ccc(OCC4CCOCC4)cc3)C2=N1 [Example 253, 7-chloro-9-[4-(tetrahydro-2H-pyran-4-ylmethoxy)phenyl]-3,4-dihydropyrido[2,1-c][1,2,4]thiadiazine 2,2-dioxide] |
| 85 | O=C1CCCCC1Oc1ccc(C2=CC=CN3CCS(=O)(=O)N=C23)cc1 (stereo not drawn) [Example 274, 2-[4-(2,2-dioxido-3,4-dihydropyrido[2,1-c][1,2,4]thiadiazin-9-yl)phenoxy]cyclohexanone] |
| 79 | O=S1(=O)CCN2CCCC(c3ccc(-n4cccn4)cc3)C2=N1 (stereo not drawn) [Example 290, 9-[4-(1H-pyrazol-1-yl)phenyl]-3,4,6,7,8,9-hexahydropyrido[2,1-c][1,2,4]thiadiazine 2,2-dioxide] |
| 68 | CC1CC(c2ccc(Oc3cccc(C(C)(F)F)c3)cc2)C2=NS(=O)(=O)CCN2C1 (racemic) [Example 173, 9-{4-[3-(1,1-difluoroethyl)phenoxy]phenyl}-7-methyl-3,4,6,7,8,9-hexahydropyrido[2,1-c][1,2,4]thiadiazine 2,2-dioxide] |
| 93 | O=S1(=O)CCN2CCC[C@@H](c3ccc(-c4ccccc4Cl)cc3)C2=N1 [Example 220, (9S)-9-(2′-chlorobiphenyl-4-yl)-3,4,6,7,8,9-hexahydropyrido[2,1-c][1,2,4]thiadiazine 2,2-dioxide] |
| 57 | CCc1ccc(Oc2ccc(C3CCCN4CCS(=O)(=O)N=C34)cc2)cc1 (stereo not drawn) [Example 161, 9-[4-(4-ethylphenoxy)phenyl]-3,4,6,7,8,9-hexahydropyrido[2,1-c][1,2,4]thiadiazine 2,2-dioxide] |

Same assay, conditions: test compound 30 μM with glutamic acid final 3 mM, change in fluorescence in 3 min, 100% = 3 mM glutamic acid + 300 μM cyclothiazide, 0% = 3 mM glutamic acid only

| activity (%) | Structure (SMILES) |
| --- | --- |
| 85 | O=C(Nc1ccc(C2CC2)cc1)C1=CC=CN2CCS(=O)(=O)N=C12 [Example 4, N-(4-cyclopropylphenyl)-3,4-dihydropyrido[2,1-c][1,2,4]thiadiazine-9-carboxamide 2,2-dioxide] |
| 63 | O=S1(=O)CCN2CCNC(c3ccc(-c4ccccc4)c(F)c3)C2=N1 (stereo not drawn) [Example 345, 9-(2-fluorobiphenyl-4-yl)-3,4,6,7,8,9-hexahydropyrazino[2,1-c][1,2,4]thiadiazine 2,2-dioxide] |
| 79 | COc1ccc2cc(C3CCCN4CCS(=O)(=O)N=C34)ccc2c1 (stereo not drawn) [Example 127, 9-(6-methoxynaphthalen-2-yl)-3,4,6,7,8,9-hexahydropyrido[2,1-c][1,2,4]thiadiazine 2,2-dioxide] |
| 91 | Cn1ccc2cc(C3=CC=CN4CCS(=O)(=O)N=C34)ccc21 [Example 412, 9-(1-methyl-1H-indol-5-yl)-3,4-dihydropyrido[2,1-c][1,2,4]thiadiazine 2,2-dioxide] |
| 73 | CC1CC(c2ccc(Oc3ccccc3)cc2)C2=NS(=O)(=O)CCN2C1 (stereo not drawn) [Example 99, 7-methyl-9-(4-phenoxyphenyl)-3,4,6,7,8,9-hexahydropyrido[2,1-c][1,2,4]thiadiazine 2,2-dioxide] |
| 95 | O=S1(=O)CCN2C=CC=C(c3ccc(Oc4ccc5c(c4)OCC5)cc3)C2=N1 [Example 313, 9-[4-(2,3-dihydro-1-benzofuran-6-yloxy)phenyl]-3,4-dihydropyrido[2,1-c][1,2,4]thiadiazine 2,2-dioxide] |
| 92 | Cc1cccc(Oc2ccc(C3CCCN4CCS(=O)(=O)N=C34)cc2)c1 (stereo not drawn) [Example 119, 9-[4-(3-methylphenoxy)phenyl]-3,4,6,7,8,9-hexahydropyrido[2,1-c][1,2,4]thiadiazine 2,2-dioxide] |
| 100 | COc1ccc2cc(C3CCCN4CCS(=O)(=O)N=C34)ccc2c1 (stereo not drawn) [Example 129, 9-(6-methoxynaphthalen-2-yl)-3,4,6,7,8,9-hexahydropyrido[2,1-c][1,2,4]thiadiazine 2,2-dioxide] |
